Key:
[1] = 1000 mg/kg intragastric once a day; from the third day of administration
Experimental: Two Weeks of Toxicity Studies on Rats (Compared with Clopidogrel)
100 mg/ml suspension is prepared before use, and administrated intragastricly at 1 ml/100 g every morning.
Experimental animals: SD rats weighing about 180 g, 7 female and 7 male in each group.
The same amount of solvent is administrated intragastricly to the blank control group, and equal-dose (1000 mg/kg) of Clopidogrel is administrated intragastricly to the positive control group.

[2] = rat, in vivo
[3] = tested on: ADP-induced platelet aggregation; test: Inhibiting effect on rat platelet aggregation (ADP-induced, PRP taken 2 h after intragastric administration); assay type: in vivo, Wistar rats; settings: blood 2 h after administration, ADP final concentration 1.08 μM, X ± SD
Experimental: Experiments of Inhibiting Effect on Rat Platelet Aggregation:
ADP: produced by SIGMA Co.
Wistar rats: SPF grade, male, provided by The Institute of Laboratory Animal Science, Chinese Academy of Medical Sciences, license No. SCXK (jing) 2005-0013.
PAM-3 Dual Channel Platelet Aggregometer: produced by Jiangsu Danyang Radio Factory.
Healthy male Wistar rats weighing 200-250 g were selected and randomly divided into groups. The experiments were carried out in three batches, and each batch was distributed into a normal control group and 6 compound groups, and totally two dose groups were tested in each batch. […] Intragastric administration with a dose volume of 10 ml/kg·bw was used. The normal control group was given the same amount of 0.5% CMC-Na. 2 h after administration, 40 mg/kg of pentobarbital sodium was intraperitoneally injected (1 ml/kg) for anesthesia, and blood was collected from the abdominal aorta. 3.8% sodium citrate was used for anticoagulation, and platelet-rich plasma (PRP) and platelet-poor plasma (PPP) were prepared respectively. Maximum percentage of ADP (final concentration: 1.08 μM) induced platelet aggregation was tested on a PAM-3 Dual Channel Platelet Aggregometer.

[4] = 15 mg/kg intragastric, n=10, control group 74.2 ± 20.8
[5] = 30 mg/kg intragastric, n=6, control group 47.1 ± 14.2

| Compound | hemorrhagic secretions around the rats' nasal [1] | conversion rate into active metabolites thiols, higher than Clopidogrel [2] | time to peak concentration of active metabolites [2] | Maximum percentage of aggregation [3, 4] | Maximum percentage of aggregation [3, 5] |
| --- | --- | --- | --- | --- | --- |
| COC(=O)[C@H](c1ccccc1Cl)N1CCc2sccc2C1 [Clopidogrel, reference compound] | hemorrhagic secretions around the rats' nasal can be observed |  |  |  |  |
| CC(=O)Oc1cc2c(s1)CCN(Cc1ccccc1C#N)C2 [Compound I-1, (5-(2-cyanobenzyl)-4,5,6,7-tetrahydrothieno[3,2-c]pyridin-2-yl)acetate] | obviously slight in the compound I-1 group than in the Clopidogrel group | about 5 times | 50 to 60 min | 20.5 ± 25.5% | 8.4 ± 8.3% |
| CC(=O)Oc1cc2c(s1)CCN(Cc1cccc(C#N)c1)C2 [Compound I-2, (5-(3-cyanobenzyl)-4,5,6,7-tetrahydrothieno[3,2-c]pyridin-2-yl)acetate] |  | about 5 times | 50 to 60 min | 29.8 ± 24.3% | 4.9 ± 28.4% |
| CC(=O)Oc1cc2c(s1)CCN(Cc1ccc(C#N)cc1)C2 [Compound I-3] |  | about 5 times | 50 to 60 min | 22.7 ± 24.1% | 8.7 ± 17.8% |

Source: patent US8809366B2, “Thienopyridine ester derivative containing cyano group, preparation method, use and composition thereof” (Tianjin Institute of Pharmaceutical Research, priority 2011, dated 2014)
